Molecules are shown by their SMILES.

In one assay the test system is A. brasiliensis. In words: Poison agar assay. The class given is cell-based, Aspergillus brasiliensis. The protocol: Microorganisms Escherichia coli (ATCC #8739), Streptococcus sanguinis (ATCC #BAA-1455), Salmonella enteria subsp. enterica (ex Kauffmann and Edwards) Le Minor and Popoff serovar Typhimurium (ATCC #14028), Staphylococcus aureus (ATCC #6538), Pseudomonas aeruginosa (ATCC #9027), and Candida albicans (ATCC #10231) were obtained from a −80° C. internal stock culture. Aspergillus brasiliensis (ATCC #16404) was obtained from an internal stock solution culture stored at 4° C. E. coli, S. enterica S. aureus, and P. aeruginosa were grown in tryptic soy broth (TSB) and incubated at 37° C. for 24 h. S. sanguinis was grown in brain heart infusion broth (BHI). A. brasiliensis was plated on Sabourand dextrose agar (SDA) and incubated at 25° C. for 5-7 days. C. albicans was grown in Sabourand dextrose broth (SDB) and incubated at 25° C. for 48 h.
A. brasiliensis was harvested by adding 18 mL sterile saline to the plate and agitating the mold from the agar with a sterile inoculating loop. The inoculum was collected upon agitation. All suspended microbes were diluted with the same type of broth media used to grow each organism until an inoculum in the range of 10^6 CFU/mL was achieved. The inoculum concentration was determined by plate count method. Each strain was identified by plating on the appropriate growth media, E. coli, S. aureus, and P. aeruginosa on tryptic soy agar (Bacto, BD Sciences, Manassas, Va.) and C. albicans and A. brasiliensis on Sabrouand dextrose agar, to ensure there was no contamination of the inoculum.
A poison agar assay was completed for A. brasiliensis. Potato dextrose agar was used as the plated medium. Inocula at 10^5 cfu/ml were prepared and counted using a Petroff-Hausser counting chamber. Each treatment was added directly into the control without DMSO and Tween 80 as used in the previous experiments. The diameter of no growth around a 6 mm blank disk after incubation at 25° C. for 72 hrs was compared to the untreated control.

In assay [1] the test system is Pseudomonas aeruginosa (ATCC #9027). Put plainly: Preservative efficacy testing in cream, Example 2 (Study 1 and 2). To be noted: Study 1, cream with 0.5% or 1.0% caprylic acid, after 2 days. The class given is cell-based. The protocol:
(§1) Oregano essential oil containing 67.8% carvacrol (lot number 628034, thymol was not detectable) was received from Kemin SCI. Caprylic acid was obtained from Fisher Scientific (catalog number AC12939). To make MicroCurb OC, a blend with 10% oregano essential oil and 90% caprylic acid (w/w) was prepared for initial testing. The solution was mixed thoroughly for 10 seconds by a vortex mixer until a clear, homogenous mixture was obtained, resulting in the product MicroCurb OC.
(§2) Creams were prepared aseptically by spraying 70% isopropyl alcohol on all surfaces and glassware. Preservative studies were completed at different times for caprylic acid alone (Study 1) and MicroCurb OC (Study 2). Tables 5 and 6 list the various ingredients and their percentages used in Study 1 and 2, respectively.
(§3) De-ionized water was added to a pre-weighed 250 mL beaker and mixed at 800 rpm using an overhead mixer (Eurostar power-b IKA-WERKE, Wilmington, N.C.) with a 3 blade impeller. Carbomer 940 was slowly added to the center of the mixing water. The mixture was hydrated for 30 minutes while covered with aluminum foil. Glycerin and Lysofix were slowly added to the solution. After solution appeared homogenous, safflower oil, olive oil, and coco caprylate were slowly added to the mixture at 1000 rpm. The solution was mixed for 30 minutes while covered with aluminum foil. Next the pH was measured (around 3.2) and adjusted to 5.5 with a 33.3% sodium hydroxide solution. The mixing speed was increased to 1400 rpm. From time to time, it was necessary to scrape the sides of the beaker with a spatula to ensure that the cream became homogenized. After 5 minutes, the cream was weighed and water was replenished for the mass lost during the processing.
(§4) Microorganisms Escherichia coli (ATCC #8739), Staphylococcus aureus (ATCC #6538), Pseudomonas aeruginosa (ATCC #9027), and Candida albicans (ATCC #10231) were obtained from −80° C. internal stock cultures. Aspergillus brasiliensis (ATCC #16404) was obtained from an internal stock solution stored at 4° C. E. coli, S. aureus, and P. aeruginosa were grown in TSB and incubated at 37° C. for 24 h. A. brasiliensis was plated on SDA and incubated at 25° C. for 5-7 days. C. albicans was grown in SDB and incubated at 25° C. for 48 h.
(§5) Pathogens in broth were harvested by centrifugation (2400 rpm, 20 minutes) and suspended in sterile phosphate buffer. A. brasiliensis was harvested by adding 18 mL sterile phosphate buffer to the plate and agitating the mold from the agar with a sterile inoculating loop. The spores were collected upon agitation. All suspended microbes were diluted with sterile phosphate buffer until a concentration in the range of 10^8 CFU/mL was achieved. The concentration was determined by plate count method. Each strain was identified by plating on the appropriate growth media, E. coli, S. aureus, and P. aeruginosa on TSA and C. albicans and A. brasiliensis on SDA, to ensure there was no contamination of the inoculum.
(§6) Preservative Efficacy Testing. Each tube was inoculated with the standardized microbial suspensions, using a ratio of 1 mL to 10 grams of the product, ensuring that the inoculum after suspension would yield the target level of 6-log CFU/g cream. For every testing time point, the sample was enumerated by sampling 1 g from the original product containers, serial dilution, and streaking plates containing the appropriate growth media to test colonization in duplicate. The inoculated plates were incubated at 25° C. for C. albicans and A. niger and 37° C. for E. coli, S. aureus, and P. aeruginosa. The number of viable microorganisms per gram was calculated via plate count method. The samples were enumerated on day 0, 2, 3, 5, 7, 14, and 28.
(§7) The plate counts obtained each day were averaged for each treatment. The results were shown graphically by the log count of each averaged value per treatment per day. For plates that had no growth, the lowest dilution plated was recorded.

Assay [2] relates to Escherichia coli (ATCC #8739). Described as above. To be noted: Study 1, cream with 0.5% or 1.0% caprylic acid, after 3 days. The class given is cell-based. The protocol: as §1, §2, §3, §4, §5, §6, §7
In assay [3] the test system is Staphylococcus aureus (ATCC #6538). The assay is described as above. The class given is cell-based. To be noted: Study 1, cream with 0.5% or 1.0% caprylic acid, after 2 days. The protocol: as §1, §2, §3, §4, §5, §6, §7
Assay [4] deals with Candida albicans (ATCC #10231). Described as above. The class given is cell-based. To be noted: Study 1, cream with 0.5% or 1.0% caprylic acid, after 2 days. The protocol:
as §1, §2, §3, §4, §5, §6, §7

Assay [5] relates to Aspergillus brasiliensis (ATCC #16404). The description is as above. The class given is cell-based. The protocol:
as §1, §2, §3, §4, §5, §6, §7

For `CCCCCCCC(=O)O` [Caprylic Acid, octanoic acid], the “% Inhibition from Control” value was 34.60% with A. brasiliensis (0.045% in agar), 100.00% in the assay on A. brasiliensis (0.090% in agar) and 100.00% with A. brasiliensis (0.270% in agar). The “Diameter of Growth” value was found to be 5.00 mm in the assay with A. brasiliensis (0.045% in agar), 0.00 mm with A. brasiliensis (0.090% in agar) and 0.00 mm in the assay on A. brasiliensis (0.270% in agar). For the same compound, in the assay on A. brasiliensis (potato dextrose agar, 25° C., 72 hrs), the “MIC90 in the poison agar assay” value is reported as 0.09%. In assay [1], the “Log reduction of P. aeruginosa” value was 5 log. For the same compound, the “Log reduction of E. coli” value in assay [2] is on record as 5 log. For the same compound, the “Log reduction of S. aureus” value in assay [3] is listed as 5 log. Moreover, the “Log reduction of C. albicans” value in assay [4] stood at 5 log. For the same compound, in assay [5] (Study 1, cream with caprylic acid, by the end of the study (28 days)), the “Log reduction of A. brasiliensis” value worked out at 2 log. Further, the “Ability to reduce the mold in cream” value in assay [5] (caprylic acid alone as control) is “unable to reduce the mold”.

Source of the values: patent US9578878B2, “Antimicrobial efficacy of an oregano oil and caprylic acid blend” (Kemin Industries, Inc., priority 2014, dated 2017).
